Results taken from PubChem BioAssay (NCI).
Values joined by “and” are separate entries in the source; they are usually repeats but may differ in a detail not shown here. Identical values can stand only once.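 Five compound concentrations were applied to cells in 96-well plates for 48 hours; endpoints were derived by simple linear interpolation of the resulting dose-response curve. GI50 = concentration required for 50% inhibition of growth. TGI marks complete inhibition of growth.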

Tests used:
Assay in all cases: DTP human tumour cell line panel, 48 h
RPMI-8226 leukemia = tested on: RPMI-8226 leukemia
SK-MEL-2 melanoma = tested on: SK-MEL-2 melanoma
UO-31 renal = tested on: UO-31 renal
BT-549 breast = tested on: BT-549 breast
NCI/ADR-RES ovarian = tested on: NCI/ADR-RES ovarian
K-562 leukemia = tested on: K-562 leukemia
COLO 205 colon = tested on: COLO 205 colon
U251 CNS = tested on: U251 CNS
M14 melanoma = tested on: M14 melanoma
PC-3 prostate = tested on: PC-3 prostate

Row | Structure (SMILES) | GI50 (RPMI-8226 leukemia) | TGI (RPMI-8226 leukemia) | GI50 (SK-MEL-2 melanoma) | TGI (SK-MEL-2 melanoma) | GI50 (UO-31 renal) | TGI (UO-31 renal) | GI50 (BT-549 breast) | TGI (BT-549 breast) | GI50 (NCI/ADR-RES ovarian) | TGI (NCI/ADR-RES ovarian) | GI50 (K-562 leukemia) | TGI (K-562 leukemia) | GI50 (COLO 205 colon) | TGI (COLO 205 colon) | GI50 (U251 CNS) | TGI (U251 CNS) | GI50 (M14 melanoma) | TGI (M14 melanoma) | GI50 (PC-3 prostate) | TGI (PC-3 prostate)
1 | Cc1c(C(N)=O)sc2nc(C)n(/N=c3\scc(-c4ccccc4)n3Cc3ccccc3)c(=O)c12 | 13.9 µM | > 100 µM | 3.89 µM | 86.6 µM | 1.66 µM | 7 µM | 2.41 µM | 8.89 µM | 2.9 µM | 29.2 µM | 8.89 µM | > 100 µM | 2.39 µM | 7.32 µM | 3.32 µM | > 100 µM | 3.88 µM | 84.5 µM | 2.15 µM | 8.31 µM
2 | COc1ccc(-c2c(-c3ccc(C#N)c(F)c3)nc(N3CCC(N)CC3)n(C)c2=O)cc1F | 18.4 µM | 49.1 µM | 18.5 µM | 38.6 µM | 9.31 µM | 22.9 µM | 14.6 µM | 30.6 µM | 21.6 µM | 63.1 µM | 11.6 µM | 28.5 µM | 13.3 µM | 31.1 µM | 14.6 µM | 32.8 µM | 17.5 µM | 34.9 µM | 12 µM | 30.6 µM
3 | O=C1Cc2cc(CCN3CCNCC3)c(Cl)cc2N1 | 6.03 µM | > 100 µM | 15.2 µM | > 100 µM |  |  | 8.18 µM | > 100 µM | 5.11 µM | > 100 µM | 6.24 µM | > 100 µM | 19.7 µM | > 100 µM | 7.79 µM | > 100 µM | 3.02 µM | 26.5 µM | 98.3 µM | > 100 µM
4 | C(=N\Nc1ccc2ccccc2n1)/c1ccccn1 | 0.513 µM | 15.7 µM | 0.511 µM | > 100 µM | 0.304 µM | 2.66 µM | 1.1 µM | > 38.9 µM | 0.345 µM | 10.6 µM | 0.487 µM | > 39.1 µM | 0.41 µM | 8.96 µM | 0.413 µM | > 55 µM | 0.565 µM | 3.45 µM | 0.825 µM | 73 µM
5 | COc1ccc2c(c1)/C(=N/OC(C)=O)c1c-2c(OC)nc2ccccc12 | > 100 µM | > 100 µM | > 100 µM | > 100 µM | > 100 µM | > 100 µM | > 100 µM | > 100 µM | > 100 µM | > 100 µM | > 100 µM | > 100 µM | > 100 µM | > 100 µM | > 100 µM | > 100 µM | > 100 µM | > 100 µM | > 100 µM | > 100 µM
6 | Fc1ccc(Nc2nc(Nc3ccc(-c4nc5ccccc5[nH]4)cc3)c3cn[nH]c3n2)cc1 | 2.3 µM | 5.2 µM | 2.11 µM | 4.95 µM | 1.62 µM | 4.32 µM | 2.36 µM | 6.4 µM | 2.11 µM | 5.04 µM | 3.04 µM | 7.41 µM | 1.75 µM | 3.67 µM | 2.1 µM | 4.34 µM | 2.01 µM | 3.95 µM | 2.02 µM | 4.53 µM
7 | NS(=O)(=O)c1ccc(N=Nc2c[nH]c(=O)c(O)c2)cc1 |  | > 100 µM |  | > 100 µM |  | > 100 µM |  | > 100 µM |  | > 100 µM |  | > 100 µM |  | > 100 µM |  | 46.3 µM |  | > 100 µM |  | > 100 µM
8 | Cc1ccc(-c2nc3sc(C)cn3c2/C=C2\C(=O)Nc3ccc(Cl)cc32)cc1 | 22.4 µM | 58.6 µM | 12.1 µM | 28.6 µM | 28.1 µM | > 100 µM | 15.3 µM | 37.1 µM | 15.7 µM | 34.2 µM | 22.8 µM | 84.1 µM | 31 µM | > 100 µM | 3.92 µM | 15.3 µM | 15.5 µM | 29.9 µM | 22.3 µM | 54.4 µM
9 | CSc1ccc(C(=O)/C=C/c2ccc(Cl)cc2Cl)cc1 | 14.7 µM | 37.7 µM | 17.6 µM | 59.3 µM | 22.4 µM | 81.7 µM | 15.7 µM | 33.1 µM | 30 µM | 94.7 µM | 6.48 µM | 49.5 µM |  |  | 16.9 µM | 32 µM | 21.6 µM | 59.6 µM | 39.6 µM | > 100 µM
10 | N#Cc1c(N)nc(N2CCOCC2)c(C#N)c1-c1c(Cl)cccc1Cl | 4.41 µM | 47.5 µM | 6.31 µM | 93.2 µM | 7.79 µM | 44.1 µM | 7 µM | 79.7 µM | 2.34 µM | 7.46 µM | 3.3 µM | 11.7 µM | 7.14 µM | 22.8 µM | 3.89 µM | 18.5 µM | 2.47 µM | 7.42 µM | 5.64 µM | 31.1 µM
11 | Oc1[nH]c2ccccc2c1C=Nc1ccc(-n2cncn2)cc1 | 18.3 µM | > 25 µM | > 25 µM | > 25 µM | > 17.7 µM | > 25 µM | > 18.9 µM | > 25 µM | 15.7 µM | > 25 µM | 13.6 µM | > 25 µM | > 25 µM | > 25 µM | > 21.6 µM | > 25 µM | > 25 µM | > 25 µM | > 20.1 µM | > 25 µM
12 | COc1cc(C(=O)n2nc(N)c3c(C)cc(C)nc32)cc(OC)c1OC | > 82.1 µM | > 100 µM | > 64.1 µM | > 100 µM | > 100 µM | > 100 µM | > 100 µM | > 100 µM | 16.3 µM | > 100 µM | 0.488 µM | > 100 µM | > 40.9 µM | > 100 µM | > 82.9 µM | > 100 µM | > 73.7 µM | > 100 µM | > 100 µM | > 100 µM
13 | COc1ccc2c(c1)nnc1c3cccnc3[nH]c21 | 0.725 µM and 0.487 µM | 2.98 µM and 5.53 µM | 1.96 µM and 3.6 µM |  | 0.122 µM and 0.172 µM | 1.11 µM and 2.17 µM | 3.43 µM and 3.26 µM | 15 µM and 20.5 µM | 1.79 µM and 1.92 µM | 12.5 µM and 18.9 µM | 0.221 µM and 1.06 µM |  | 1.13 µM and 0.735 µM | 4.87 µM and 2.31 µM | 0.929 µM and 0.987 µM | 17.3 µM and 10.7 µM | 1.07 µM and 3.26 µM |  | 1.42 µM | > 100 µM
